Source: US12486269B2 (Aconcagua Bio, Inc., priority 2024, dated 2025)

Columns and labels:
[1] = biological target: T1, human calcitonin receptor (CTR) (Homo sapiens, UniProt P30988); assay: Calcitonin Receptor (CTR) cAMP Assay; type: cell-based; conditions: COS7-human CTR Clone #2 stable cell line, cAMP dynamic 2 kit, 30 min; read-out: Calcitonin Receptor cAMP Stimulation Activity: EC50
T1 construct: expressed in transfected cells; host or cells: COS-7 (COS7-human CTR Clone #2)
T1 sequence (P30988 25-474): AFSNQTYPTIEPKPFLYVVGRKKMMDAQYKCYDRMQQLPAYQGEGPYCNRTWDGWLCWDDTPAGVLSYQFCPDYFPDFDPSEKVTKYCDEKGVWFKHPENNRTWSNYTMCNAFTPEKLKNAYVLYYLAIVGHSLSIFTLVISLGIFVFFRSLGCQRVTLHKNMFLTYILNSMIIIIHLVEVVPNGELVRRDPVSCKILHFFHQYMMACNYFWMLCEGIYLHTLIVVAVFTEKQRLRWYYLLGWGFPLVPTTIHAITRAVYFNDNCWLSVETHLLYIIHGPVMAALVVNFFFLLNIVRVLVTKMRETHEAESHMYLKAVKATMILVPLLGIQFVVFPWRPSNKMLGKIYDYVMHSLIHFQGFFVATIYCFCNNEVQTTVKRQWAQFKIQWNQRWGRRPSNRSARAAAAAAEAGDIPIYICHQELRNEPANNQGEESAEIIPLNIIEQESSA
Outline: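 cAMP accumulation was measured by HTRF cAMP dynamic 2 read at 665/615 nm, 1 h at room temperature, with results scaled between vehicle and positive control. Before detection, COS7-human CTR stable cells were stimulated 30 min at 37 °C with compound (4-fold dilutions) in IBMX-containing HBSS/HEPES/casein buffer.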

[2] = biological target: T2, COS-7/AMY3 (human calcitonin receptor (CTR) and RAMP3) (Homo sapiens, UniProt O60896+P30988); assay: Amylin Receptor cAMP Assay II; type: cell-based; conditions: values marked **: Amylin Receptor cAMP Assay II; COS-7/AMY3 cells, cAMP dynamic 2 kit, 30 min; read-out: Amylin Receptor cAMP Stimulation Activity: EC50
T2 construct: expressed in transfected cells; host or cells: COS-7
Outline: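 Agonist-induced cAMP was quantified by HTRF ratio at 665/615 nm and expressed as % of the window from vehicle to MAX control. Stimulation lasted 30 min at 37 °C in HBSS/20 mM HEPES/0.5 mM IBMX/0.1% casein, using stable human CTR+RAMP3 (AMY3) COS-7 cells at 2000 per well.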

T2 sequence (O60896 24-148, one chain of several): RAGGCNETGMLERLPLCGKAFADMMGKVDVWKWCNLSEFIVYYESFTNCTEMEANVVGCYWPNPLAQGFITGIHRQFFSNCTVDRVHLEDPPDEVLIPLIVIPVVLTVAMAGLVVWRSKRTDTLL

Row | SMILES | EC50 [1] [nM] | EC50 [2] [nM]
1 | COc1c(F)ccc2c1CC[C@H]2Nc1nccc2cc(-c3c4c(nc(CCc5ccccc5Cl)c3-c3n[nH]c(=O)o3)C35CC(CN3C4=O)C5)sc12 [Compound 278, (R)-5-(2-(2-chlorophenethyl)-4-(7-((5-fluoro-4-methoxy-2,3-dihydro-1H-inden-1-yl)amino)thieno[2,3-c]pyridin-2-yl)-5-oxo-8,9-dihydro-5H,7H-8,9a-methanopyrido[2,3-a]pyrrolizin-3-yl)-1,3,4-oxadiazol-2(3H)-one] | 0.0636 | 0.517
2 | O=C1c2c(nc(CCc3ccc(F)cc3)c(-c3n[nH]c(=O)o3)c2-c2cc3ccnc(N[C@@H]4CCc5c(F)cc(F)cc54)c3s2)C23CC(CN12)C3 [Compound 279, (R)-5-(4-(7-((4,6-difluoro-2,3-dihydro-1H-inden-1-yl)amino)thieno[2,3-c]pyridin-2-yl)-2-(4-fluorophenethyl)-5-oxo-5,7,8,9-tetrahydro-8,9a-methanopyrido[2,3-a]pyrrolizin-3-yl)-1,3,4-oxadiazol-2(3H)-one] | 0.051 | 0.318
3 | O=C1c2c(nc(CCc3ccc(F)cc3)c(-c3n[nH]c(=O)o3)c2-c2cc3ccnc(N[C@@H]4CCc5cc(F)ccc54)c3s2)C23CC(CN12)C3 [Compound 280, (R)-5-(4-(7-((5-fluoro-2,3-dihydro-1H-inden-1-yl)amino)thieno[2,3-c]pyridin-2-yl)-2-(4-fluorophenethyl)-5-oxo-5,7,8,9-tetrahydro-8,9a-methanopyrido[2,3-a]pyrrolizin-3-yl)-1,3,4-oxadiazol-2(3H)-one] | 0.114 | 0.935
4 | COc1cccc2c1CC(F)(F)[C@H]2Nc1nccc2cc(-c3c4c(nc(CCc5ccc(F)cc5)c3-c3n[nH]c(=O)o3)C35CC(CN3C4=O)C5)sc12 [Compound 281, (S)-5-(4-(7-((2,2-difluoro-4-methoxy-2,3-dihydro-1H-inden-1-yl)amino)thieno[2,3-c]pyridin-2-yl)-2-(4-fluorophenethyl)-5-oxo-5,7,8,9-tetrahydro-8,9a-methanopyrido[2,3-a]pyrrolizin-3-yl)-1,3,4-oxadiazol-2(3H)-one] | 0.239 | 0.733
5 | COc1c(F)ccc2c1CC(F)(F)[C@H]2Nc1nccc2cc(-c3c4c(nc(CCc5ccc(F)cc5)c3-c3n[nH]c(=O)o3)[C@@H]3CCCN3C4=O)sc12 [Compound 282, 5-((S)-2-(4-fluorophenethyl)-5-oxo-4-(7-(((S)-2,2,5-trifluoro-4-methoxy-2,3-dihydro-1H-inden-1-yl)amino)thieno[2,3-c]pyridin-2-yl)-7,8,9,9a-tetrahydro-5H-pyrido[2,3-a]pyrrolizin-3-yl)-1,3,4-oxadiazol-2(3H)-one] | 0.0464 | 0.464
6 | COc1c(F)ccc2c1CC(F)(F)[C@H]2Nc1nccc2cc(-c3c4c(nc(CCc5ccc(F)cc5)c3-c3n[nH]c(=O)o3)C35CC(CN3C4=O)C5)sc12 [Compound 283, (S)-5-(2-(4-fluorophenethyl)-5-oxo-4-(7-((2,2,5-trifluoro-4-methoxy-2,3-dihydro-1H-inden-1-yl)amino)thieno[2,3-c]pyridin-2-yl)-5,7,8,9-tetrahydro-8,9a-methanopyrido[2,3-a]pyrrolizin-3-yl)-1,3,4-oxadiazol-2(3H)-one] | 0.0191 | 1.57
7 | COc1cccc2c1CC(F)(F)[C@H]2Nc1nccc2cc(-c3c4c(nc(CCc5ccc(F)cc5)c3-c3n[nH]c(=O)o3)[C@@H]3COCCN3C4=O)sc12 [Compound 284, (R)-4-(7-(((S)-2,2-difluoro-4-methoxy-2,3-dihydro-1H-inden-1-yl)amino)thieno[2,3-c]pyridin-2-yl)-2-(4-fluorophenethyl)-3-(5-oxo-4,5-dihydro-1,3,4-oxadiazol-2-yl)-7,8,10,10a-tetrahydro-5H-pyrido[2′,3′:3,4]pyrrolo[2,1-c][1,4]oxazin-5-one] | 4.23 | 81.6
8 | O=C1c2c(nc(CCc3ccc(F)cc3)c(-c3n[nH]c(=O)o3)c2-c2cc3ccnc(N[C@@H]4CCc5c4ccc(F)c5OC(F)F)c3s2)C23CC(CN12)C3 [Compound 285, (R)-5-(4-(7-((4-(difluoromethoxy)-5-fluoro-2,3-dihydro-1H-inden-1-yl)amino)thieno[2,3-c]pyridin-2-yl)-2-(4-fluorophenethyl)-5-oxo-5,7,8,9-tetrahydro-8,9a-methanopyrido[2,3-a]pyrrolizin-3-yl)-1,3,4-oxadiazol-2(3H)-one] | 0.0136 | 0.208
9 | COc1c(F)c(F)cc2c1CC[C@H]2Nc1nccc2cc(-c3c4c(nc(CCc5ccc(F)cc5)c3-c3n[nH]c(=O)o3)C35CC(CN3C4=O)C5)sc12 [Compound 286, (R)-5-(4-(7-((5,6-difluoro-4-methoxy-2,3-dihydro-1H-inden-1-yl)amino)thieno[2,3-c]pyridin-2-yl)-2-(4-fluorophenethyl)-5-oxo-8,9-dihydro-5H,7H-8,9a-methanopyrido[2,3-a]pyrrolizin-3-yl)-1,3,4-oxadiazol-2(3H)-one] | 0.00668 | 0.175
10 | COc1c(F)ccc2c1CC[C@H]2Nc1nc(C(F)F)cc2cc(-c3c4c(nc(CCc5ccc(F)cc5)c3-c3n[nH]c(=O)o3)C35CC(CN3C4=O)C5)sc12 [Compound 287, (R)-5-(4-(5-(difluoromethyl)-7-((5-fluoro-4-methoxy-2,3-dihydro-1H-inden-1-yl)amino)thieno[2,3-c]pyridin-2-yl)-2-(4-fluorophenethyl)-5-oxo-8,9-dihydro-5H,7H-8,9a-methanopyrido[2,3-a]pyrrolizin-3-yl)-1,3,4-oxadiazol-2(3H)-one] | 0.0178 | 0.35
11 | COc1c(F)cc(F)c2c1CC[C@H]2Nc1nccc2cc(-c3c4c(nc(CCc5ccc(F)cc5)c3-c3n[nH]c(=O)o3)C35CC(CN3C4=O)C5)sc12 [Compound 288, (R)-5-(4-(7-((5,7-difluoro-4-methoxy-2,3-dihydro-1H-inden-1-yl)amino)thieno[2,3-c]pyridin-2-yl)-2-(4-fluorophenethyl)-5-oxo-8,9-dihydro-5H,7H-8,9a-methanopyrido[2,3-a]pyrrolizin-3-yl)-1,3,4-oxadiazol-2(3H)-one] | 0.0436 | 1.59
12 | COc1c(Cl)cc2c(c1F)CC[C@H]2Nc1nccc2cc(-c3c4c(nc(CCc5ccc(F)cc5)c3-c3n[nH]c(=O)o3)C35CC(CN3C4=O)C5)sc12 [Compound 289, (R)-5-(4-(7-((6-chloro-4-fluoro-5-methoxy-2,3-dihydro-1H-inden-1-yl)amino)thieno[2,3-c]pyridin-2-yl)-2-(4-fluorophenethyl)-5-oxo-5,7,8,9-tetrahydro-8,9a-methanopyrido[2,3-a]pyrrolizin-3-yl)-1,3,4-oxadiazol-2(3H)-one] | 0.0645 | 0.54
13 | COc1c(F)ccc2c1CC(F)(F)[C@@H]2Nc1nccc2cc(-c3c4c(nc(CCc5ccc(F)cc5)c3-c3n[nH]c(=O)o3)[C@@H]3CCCN3C4=O)sc12 [Compound 290, 5-((S)-2-(4-fluorophenethyl)-5-oxo-4-(7-(((R)-2,2,5-trifluoro-4-methoxy-2,3-dihydro-1H-inden-1-yl)amino)thieno[2,3-c]pyridin-2-yl)-7,8,9,9a-tetrahydro-5H-pyrido[2,3-a]pyrrolizin-3-yl)-1,3,4-oxadiazol-2(3H)-one] | 17.6 | 1640
